Reference: US4598076A, “2-pyrrolin-3-carbonitril-derivatives, pharmaceutical compositions containing them and their anti-inflammatory and ulcer protective activity” (Warner-Lambert Company, priority 1982, dated 1986)

Tests used:
[1] = Acute toxicity on mice (LD50, 7 day observation); settings: mouse, in vivo, po; male NMRI mice, intragastral, 7 day observation
Protocol: (§1) The determination of the acute toxicity was carried out on male mice (NMRI) with a body weight of from 18 to 23 g. All the experimental animals fasted for 20 hours before commencement of the experiment. Water was available ad libitum. Each dosage grouping contained 4 animals. The dosage sequence was logarithmic. The test compounds were administered intragastrally as suspensions in 1% tragacanth slurry. The volume administered was 20 ml./kg. body weight.
(§2) The following Table gives the LD50 values after a 7 day observation period of the animals: […]

[2] = tested on: gastric juice secretion in rats; assay: Influence on gastric juice secretion in rats (Shay, pyloric ligature); type: in vivo, rats (SIV 50); settings: 4 hours after pyloric ligature
Protocol: According to the method described by H. Shay et al. (Gastroenterology, 5, 43-61/1945), male rats (SIV 50) with a body weight of 160 to 200 g. were fasted for 48 hours before commencement of the experiment. Water was available to the animals ad libitum. The test substances were administered intragastrally as a suspension in 1% tragacanth slurry. The volume administered was 10 ml./kg. body weight. 8 animals were used per experimental group. One hour after administration of the substance, a pyloric ligature was applied under light ether narcosis. 4 hours after this intervention, the animals were sacrificed. The extirpated stomach was opened up along the curvatura major and the volume of the secretion was measured and compared with the data obtained from the control group.

[3] = tested on: carrageenin oedema in rats; assay: Antiphlogistic action against carrageenin oedema in rats; type: in vivo, rats (SIV 50); settings: for inhibition of the paw volume: 3 hours after carrageenin; for antiphlogistic properties (in words): carrageenin oedema
Protocol: The experimental animals used were male rats (SIV 50), fasting for 20 hours, with a body weight of 110 to 160 g. Water was available ad libitum. After determination of the initial value of the paw volume of the right hind leg, the test substance was administered intragastrally as a suspension in 1% tragacanth slurry. 10 animals were used per dosage group. The volume administered was 20 ml./kg. body weight. The paw volume was measured by means of mercury displacement. 60 minutes after intragastral administration of the test substances, 0.1 ml. of a 1% carrageenin solution was injected subplantarily into the right hind paw. 1 and 3 hours after injection of the carrageenin, the paw volume of the oedematous paw was measured. The increase of the paw volume of the test substance-treated animals after 3 hours was compared with that of the control animals and the inhibition of the paw oedema by the test substance was calculated therefrom as a percentage.

[4] = tested on: stomach ulcers in rats induced by indomethacin; assay: Ulcer-protective action on stomach ulcers in rats induced by indomethacin; type: in vivo, rats (SIV 50); settings: with 40 mg/kg indomethacin, 5 hours
Protocol: The experimental animals used were male rats (SIV 50), fasted for 20 hours, with a body weight of 170 to 220 g. Water was available ad libitum. The animals were simultaneously given intragastrally 40 mg./kg. indomethacin and the test substance in the form of a suspension in 0.8% "Methocel". The control animals only received the corresponding dosage of indomethacin. 10 animals were used for each experimental group. The volume administered was 10 ml./kg. body weight. 5 hours after administration, the animals were sacrificed. After removal of the stomach and opening along the curvatura major, this was investigated with a stereomagnifier for the presence of ulcers. […] The ulcer index of the animals treated with indomethacin and test substance was compared with that of the control animals which had only been treated with indomethacin and the ulcer inhibition calculated therefrom as a percentage.

[5] = tested on: male mice (NMRI); assay: Acute toxicity on mice (LD50, 7 day observation); settings: mouse, in vivo
Protocol: as §1, §2

For `CN(C)c1ccc(C2(c3cccnc3)C(=O)NC(SCCN3CCOCC3)=C2C#N)cc1` (stereo not drawn) [Example 4b, 4-(4-dimethylaminophenyl)-2-(2-morpholinoethylthio)-5-oxo-4-(3-pyridyl)-2-pyrroline-3-carbonitrile], the LD50 at 168 h [1] was 400 mg/kg, the “inhibition of gastric juice secretion” value ([2]; 50 mg/kg intragastral) was 24% and the “inhibition of gastric juice secretion” value ([2]; 100 mg/kg intragastral) was 63%. For the same compound, the “inhibition of gastric juice secretion” value ([2]; 200 mg/kg intragastral) was 76%.
With `CN(C)CCSC1=C(C#N)C(c2ccc(N(C)C)cc2)(c2cccnc2)C(=O)N1` (stereo not drawn) [Example 4g, 2-(2-dimethylaminoethylthio)-4-(4-dimethylaminophenyl)-5-oxo-4-(3-pyridyl)-2-pyrroline-3-carbonitrile] the LD50 at 168 h [1] was 1600 mg/kg, the “inhibition of the paw volume” value ([3]; 50 mg/kg intragastrally) was 25% and the “inhibition of the paw volume” value ([3]; 100 mg/kg intragastrally) was 61%.
For `CCN(CC)CCSC1=C(C#N)C(c2ccc(N(C)C)cc2)(c2cccnc2)C(=O)N1` (stereo not drawn) [Example 4a, 2-(2-diethylaminoethylthio)-4-(4-dimethylaminophenyl)-5-oxo-4-(3-pyridyl)-2-pyrrolin-3-carbonitril], the LD50 at 168 h [1] was 800 mg/kg, the ulcer inhibition ([4]; 125 mg/kg intragastral) was 84% and the “inhibition of the paw volume” value ([3]; 50 mg/kg intragastrally) was 59%. The “inhibition of the paw volume” value ([3]; 100 mg/kg intragastrally) was 77%, the “antiphlogistic properties (in words)” value [3] was “most effective compounds” and the “inhibition of gastric juice secretion” value ([2]; 62.5 mg/kg intragastral) was 45%. For the same compound, the “inhibition of gastric juice secretion” value ([2]; 125 mg/kg intragastral) was 64% and the “inhibition of gastric juice secretion” value ([2]; 250 mg/kg intragastral) was 73%.
`CCN(CC)CCCSC1=C(C#N)C(c2ccc(N(C)C)cc2)(c2cccnc2)C(=O)N1` (stereo not drawn) [Example 4k, 2-(3-diethylaminopropylthio)-4-(4-dimethylaminophenyl)-5-oxo-4-(3-pyridyl)-2-pyrroline-3-carbonitrile] gave an LD50 at 168 h [1] of 300 mg/kg, a ulcer inhibition ([4]; 50 mg/kg intragastral) of 33% and a ulcer inhibition ([4]; 100 mg/kg intragastral) of 94%.
For `N#CC1=C(SCCN2CCOCC2)NC(=O)C1(c1ccccc1)c1cccs1` (stereo not drawn) [Example 6c, 2-(2-morpholinoethylthio)-5-oxo-4-phenyl-4-(2-thienyl)-2-pyrroline-3-carbonitrile], the LD50 at 168 h [1] was greater than 1600 mg/kg, the “inhibition of the paw volume” value ([3]; 125 mg/kg intragastrally) was 6% and the “inhibition of the paw volume” value ([3]; 250 mg/kg intragastrally) was 45%.
For `CN(C)c1ccc(C2(c3cccnc3)C(=O)NC(SCCN3CCCC3)=C2C#N)cc1` (stereo not drawn) [Example 4e, 4-(4-dimethylaminophenyl)-2-(2-pyrrolidinoethylthio)-5-oxo-4-(3-pyridyl)-2-pyrroline-3-carbonitrile], the LD50 at 168 h [1] was greater than 1600 mg/kg, the “inhibition of the paw volume” value ([3]; 25 mg/kg intragastrally) was 37% and the “inhibition of the paw volume” value ([3]; 50 mg/kg intragastrally) was 70%. For the same compound, the “antiphlogistic properties (in words)” value [3] was “most effective compounds”.
In the case of `N#CC1=C(SCCN2CCCC2)NC(=O)C1(c1ccccc1)c1cccs1` (stereo not drawn) [Example 6f, 5-oxo-4-phenyl-2-(2-pyrrolidinoethylthio)-4-(2-thienyl)-2-pyrroline-3-carbonitrile], the LD50 at 168 h [1] is reported as greater than 1600 mg/kg, the “inhibition of the paw volume” value ([3]; 125 mg/kg intragastrally) is reported as 24% and the “inhibition of the paw volume” value ([3]; 250 mg/kg intragastrally) is reported as 45%.
In the case of `CN(C)c1ccc(C2(c3cccnc3)C(=O)NC(SCCN3CCCCC3)=C2C#N)cc1` (stereo not drawn) [Example 4d, 4-(4-dimethylaminophenyl)-2-(2-piperidinoethylthio)-5-oxo-4-(3-pyridyl)-2-pyrroline-3-carbonitrile], the LD50 at 168 h [1] is reported as 1600 mg/kg, the “inhibition of the paw volume” value ([3]; 50 mg/kg intragastrally) is reported as 26% and the “inhibition of the paw volume” value ([3]; 125 mg/kg intragastrally) is reported as 83%. The “inhibition of gastric juice secretion” value ([2]; 125 mg/kg intragastral) was 48% and the “inhibition of gastric juice secretion” value ([2]; 250 mg/kg intragastral) was 76%.
With `CSC1=C(C#N)C(c2ccc(N(C)C)cc2)(c2cccnc2)C(=O)N1` (stereo not drawn) [Example 4i, 4-(4-dimethylaminophenyl)-2-methylthio-5-oxo-4-(3-pyridyl)-2-pyrroline-3-carbonitrile] the LD50 at 168 h [1] was greater than 1600 mg/kg, the “compatibility (in words)” value [5] was “good compatibility” and the ulcer inhibition ([4]; 50 mg/kg intragastral) was 88%.
